Results from patent US20210317099A1, “SAFER, POTENT, AND FAST ACTING ANTIMICROBIAL AGENTS” (Purdue Research Foundation, priority 2020, published 2021).
Converted amounts (≈) assume the structure as drawn.

How the values were obtained:
[1] = In vitro cytotoxicity, MTS assay; type: cell-based, human; details: human, Caco-2 cells; Caco-2, two hours incubation, MTS; read-out: 50% cytotoxic concentration (CC50)
Protocol: Compounds 144, 148, 151, 155, 158, and 187 were assayed (at concentrations of 16, 32, and 64 μg/mL) against a human colorectal adenocarcinoma (Caco-2) cell to determine the potential toxic effect to mammalian cells in vitro. Briefly, cells were cultured in Dulbecco's Modified Eagle Medium (DMEM) supplemented with 10% fetal bovine serum (FBS), non-essential amino acids (1×), penicillin-streptomycin at 37° C. in presence of 5% CO2. Control cells received DMSO alone at a concentration equal to that in drug-treated wells. The cells were incubated with the compounds (in triplicate) in a 96-well plate at 37° C. with 5% CO2 for two hours. This was followed by the subsequent addition of the assay reagent MTS 3-(4,5-dimethylthiazol-2-yl)-5-(3-carboxymethoxyphenyl)-2-(4-sulfophenyl)-2H-tetrazolium) (Promega, Madison, Wis., USA) and the plate was incubated for three to four hours. Absorbance readings (at OD490) were recorded using a kinetic microplate reader (Molecular Devices, Sunnyvale, Calif., USA). The quantity of viable cells after treatment with each compound was expressed as a percentage of the viability of DMSO-treated control cells (average of triplicate wells±standard deviation).
FIG. 3. Analyzing the toxicity of 144, 148, 151, 155, 158, and 187 compounds (tested in triplicates at 16, 32 and 64 μg/mL) against human colorectal cells (Caco-2) using the MTS 3-(4,5-dimethylthiazol-2-yl)-5-(3-carboxymethoxyphenyl)-2-(4-sulfophenyl)-2H-tetrazolium) assay. Results are presented as percent viable cells relative to DMSO (negative control) to determine a baseline measurement for the cytotoxic impact of each compound. The absorbance values represent an average of three samples analyzed for each compound. Error bars represent standard deviation values. The data were analyzed via a two-way ANOVA with post-hoc Dunnett's test for multiple comparisons. An asterisk (*) denotes statistical significance (P<0.05) between results for compounds and DMSO.

MRSA NRS 385 = test: MIC, Gram-positive panel; type: cell-based; details: Staphylococcus aureus; MRSA NRS 385; read-out: MIC
Protocol: (§1) Next, the spectrum of antibacterial activity of compounds 144, 148, 149, 151, 155, 158, and 187 was examined against a panel of clinically relevant Gram-positive bacterial pathogens including methicillin-resistant Staphylococcus aureus (MRSA), vancomycin-resistant Staphylococcus aureus (VRSA), vancomycin-resistant Enterococcus faecalis and Enterococcus faecium (VRE), and Streptococcus pneumoniae. Bacterial strains were grown aerobically overnight on tryptone soya agar plates at 37° C. Afterwards, a bacterial solution equivalent to 0.5 McFarland standard was prepared and diluted in cation-adjusted Mueller-Hinton broth (CAMHB) (for staphylococci). Enterococci and Streptococci were diluted in tryptone soya broth (TSB) to achieve a bacterial concentration of about 5×10^5 CFU/mL and seeded in 96-well plates. Compounds and control drugs were added in the first row of 96-well plates and serially diluted with media containing bacteria. Plates were then, incubated aerobically at 37° C. for 18-20 hours (except for S. pneumoniae, which was incubated at 37° C. in presence of 5% CO2 for 18-20 hours).

[2] = test system: Methicillin-resistant S. epidermidis NRS101; test: MIC, Gram-positive panel; type: cell-based; details: Staphylococcus epidermidis; Methicillin-resistant S. epidermidis NRS101; read-out: MIC
Protocol: as §1

S. aureus ATCC 6538 = test: MIC, Gram-positive panel; type: cell-based; details: Staphylococcus aureus, ATCC6538; S. aureus ATCC 6538; read-out: MIC
Protocol: as §1

MRSA NRS 386 = test: MIC, Gram-positive panel; type: cell-based; details: Staphylococcus aureus; MRSA NRS 386; read-out: MIC
Protocol: as §1

S. aureus NRS 107 = test: MIC, Gram-positive panel; type: cell-based; details: Staphylococcus aureus, NRS107; S. aureus NRS 107; read-out: MIC
Protocol: as §1

[3] = test system: Enterococcus faecalis ATCC 51299 (VRE); test: MIC, Gram-positive panel; type: cell-based; details: Enterococcus faecalis ATCC 51299 (VRE); read-out: MIC
Protocol: as §1

[4] = test system: Methicillin-resistant S. pneumoniae ATCC 700677; test: MIC, Gram-positive panel; type: cell-based; details: Streptococcus pneumoniae, ATCC700677; Methicillin-resistant S. pneumoniae ATCC 700677; read-out: MIC
Protocol: as §1

MRSA NRS 119 = test: MIC, Gram-positive panel; type: cell-based; details: Staphylococcus aureus; MRSA NRS 119; read-out: MIC
Protocol: as §1

MRSA NRS 123 = test: MIC, Gram-positive panel; type: cell-based; details: Staphylococcus aureus; MRSA NRS 123; read-out: MIC
Protocol: as §1

[5] = test system: Enterococcus faecium ATCC 700221 (VRE); test: MIC, Gram-positive panel; type: cell-based; details: Enterococcus faecium ATCC 700221 (VRE); read-out: MIC
Protocol: as §1

VRSA 12 = test: MIC, Gram-positive panel; type: cell-based; details: Staphylococcus aureus; VRSA 12; read-out: MIC
Protocol: as §1

VRSA 10 = test: MIC, Gram-positive panel; type: cell-based; details: Staphylococcus aureus; VRSA 10; read-out: MIC
Protocol: as §1

S. pneumoniae ATCC 51916 = test: MIC, Gram-positive panel; type: cell-based; details: Streptococcus pneumoniae, ATCC51916; S. pneumoniae ATCC 51916; read-out: MIC
Protocol: as §1

MRSA USA 400 = test: Time-kill assay; type: cell-based, Staphylococcus aureus; details: 5×MIC; for time required for complete eradication of the bacterial count: MRSA USA 400, 24-hour incubation
Protocol: In order to the mode of killing of methylene lactone compounds, a time kill assay was performed against MRSA USA 400 as described previously. MRSA USA400 cells in logarithmic growth phase (OD600˜1.00) were diluted to 6.03×10^6 colony-forming units (CFU/mL) and exposed to concentrations equivalent to 5×MIC (in triplicate) of 148, 149, 151, 155, 158 and vancomycin in Tryptic soy broth. Aliquots (100 μL) were collected from each treatment after 0, 2, 4, 6, 8, 12, and 24 hours of incubation at 37° C. and subsequently serially diluted in PBS. Bacteria were then transferred to Tryptic soy agar plates and incubated at 37° C. for 18-20 hours before viable CFU/mL was determined (FIG. 1).
DMSO (solvent for the compounds) served as a negative control and vancomycin served as a control drug. The error bars represent standard deviation values obtained from triplicate samples used for each compound/antibiotic studied.

| SMILES | CC50 at 2 h [1] [µg/mL] | MIC (MRSA NRS 385) [µg/mL] | MIC [2] [µg/mL] | MIC (S. aureus ATCC 6538) [µg/mL] | MIC (MRSA NRS 386) [µg/mL] | MIC (S. aureus NRS 107) [µg/mL] | MIC [3] [µg/mL] | MIC [4] [µg/mL] | MIC (MRSA NRS 119) [µg/mL] | MIC (MRSA NRS 123) [µg/mL] | MIC [5] [µg/mL] | MIC (VRSA 12) [µg/mL] | MIC (VRSA 10) [µg/mL] | MIC (S. pneumoniae ATCC 51916) [µg/mL] | time required for complete eradication of the bacterial count (MRSA USA 400) [h] | reduction in the bacterial count after 6 hours (MRSA USA 400; MRSA USA 400, after 6 hours) [log10] | reduction in the bacterial count after 6 hours (percent) (MRSA USA 400; MRSA USA 400, after 6 hours) [%] |
| --- | --- | --- | --- | --- | --- | --- | --- | --- | --- | --- | --- | --- | --- | --- | --- | --- | --- |
| C=C(C(=O)OC)C(c1ccc2ccccc2c1)C(O)c1cccc2ccccc12 (stereo not shown) [Compound 148] | > 64 | 1 (≈ 2.61 µM) | 1 (≈ 2.61 µM) | 1 (≈ 2.61 µM) | 1 (≈ 2.61 µM) | 1 (≈ 2.61 µM) | > 64 | 1 (≈ 2.61 µM) | 1 (≈ 2.61 µM) | 1 (≈ 2.61 µM) | > 64 | 2 (≈ 5.23 µM) | 2 (≈ 5.23 µM) | 1 (≈ 2.61 µM) | 12 | 3 | 99.9 |
| C=C1C(=O)O[C@H](c2cccc3ccccc23)[C@@H]1c1ccc2ccccc2c1 [Compound 155] |  | 1 (≈ 2.85 µM) | 1 (≈ 2.85 µM) | 1 (≈ 2.85 µM) | 1 (≈ 2.85 µM) | 1 (≈ 2.85 µM) | > 64 | 1 (≈ 2.85 µM) | 1 (≈ 2.85 µM) | 1 (≈ 2.85 µM) | > 64 | 2 (≈ 5.71 µM) | 1 (≈ 2.85 µM) | 1 (≈ 2.85 µM) | 2 |  |  |
| C=C1C(=O)O[C@H](c2ccc3ccccc3c2)[C@@H]1c1ccc2ccccc2c1 [Compound 158] | > 64 | 1 (≈ 2.85 µM) | 0.5 (≈ 1.43 µM) | 1 (≈ 2.85 µM) | 1 (≈ 2.85 µM) | 1 (≈ 2.85 µM) | > 64 | 2 (≈ 5.71 µM) | 1 (≈ 2.85 µM) | 1 (≈ 2.85 µM) | > 64 | 2 (≈ 5.71 µM) | 1 (≈ 2.85 µM) | 2 (≈ 5.71 µM) | 2 |  |  |
| C=C1C(=O)O[C@H](c2ccccc2)[C@@H]1c1cccc2ccccc12 [Compound 151] | > 64 | 1 (≈ 3.33 µM) | 8 (≈ 26.6 µM) | 2 (≈ 6.66 µM) | 1 (≈ 3.33 µM) | 2 (≈ 6.66 µM) | > 64 | 4 (≈ 13.3 µM) | 2 (≈ 6.66 µM) | 2 (≈ 6.66 µM) | > 64 | 2 (≈ 6.66 µM) | 2 (≈ 6.66 µM) | 4 (≈ 13.3 µM) | 2 |  |  |
